# Measured values as given in US20100075370A1, “METHOD FOR DETERMINATION OF CELL VIABILITY BY USING FLOW CYTOMETRY WITH FIXED VOLUME ACQUISITION” (TUMORTEC GMBH, priority 2006, published 2010).
# System: patient samples (pBMC from CLL patients)
# Assay: DiSC assay, chemosensitivity index Ci
# Format: cell-based, human
# Experimental: (2) A more complex standardization is the calculation of an index. In case of the chemosensitivity testing it is not a single value that has to be standardized. The chemosensitivity towards a drug is tested with several concentrations of the drug in parallel in a cell culture assay. […] This method was adopted for the present invention from the analysis of DiSC assays (Staib et al., British Journal of Haematology, 2005, 128, 783-791). The Chemosensitivity Index Ci was designed as a prognostic index for ex vivo chemosensitivity assays. Assay results were expressed as percent tumor cell survival (% TCS). The dose-response curve as a function of the dose-response relationship may be mathematically described by a […] regression model (FIG. 4). The dose-response curve was defined as CS=c1*e^conc*c2 % with cell survival (CS), drug concentration (conc) and the constants c1 and c2. c1 represented the y-axis distance and c2 the slope of the curve. The area under the curve (AUC) as an exact measure for the total dose response relation was defined as AUC=−e^c1/c2, on condition that c2 is less than 0, otherwise AUC is infinite. The chemosensitivity index, Ci, was set up as Ci=e^−AUC*c with a domain between 0 and 1. The drug-specific constant c was used for adjusting the Ci-value of 0.5 as the cut-off point between resistance and sensitivity. The constant c was defined as
# with AUCcut-off as the smallest AUC value among all clinical non-responding patients of the training data set. Obviously, all cytotoxic agents given for treatment were ineffective in these patients. The cut-off Ci value must be adjusted to 0.5 for prognosis of the effect of the drug on a patient in vivo when the drug is tested on said patient's cells in vitro using the method of the present invention. Ci values of 0-0.5 indicated resistance and values above 0.5 predicted sensitivity against the drug tested.
# The chemosensitivity index Ci based on the DiSC assay as described in Staib, P. et al., Br. J. Haematol., 128(6):783-91 (2005) is known to have a very high accuracy of prediction (98%) for the clinical outcome of a particular chemotherapy (Staib, P. et al., Br. J. Haematol., 128(6):783-91 (2005)). In order to evaluate the accuracy of the cytotoxicity assay as described in example 1 (“new method”), the Ci determination was performed for assay results of patient samples analyzed with the traditional DiSC assay and—in parallel—with the new assay method described in example 1. In total, 22 patient samples were analyzed. Fludara® was used in both assays. The cytotoxicity assay of example 1 was performed as described therein, and the DiSC assay was performed as described in Staib, P. et al., Br. J. Haematol., 128(6):783-91 (2005).
smiles,measurement,setting,value
"Nc1nc(F)nc2c1ncn2[C@@H]1O[C@H](COP(=O)(O)O)[C@@H](O)[C@@H]1O [Fludarabine phosphate, 2-Fluoro-9-(5-O-phosphono-β-D-arabinofuranosyl)-9H-purin-6-amine]",Ci (DiSC-Assay),patient #1,0.99
same,prediction (DiSC-Assay),patient #1,sensitive (values above 0.5 predicted sensitivity against the drug tested)
same,Ci (DiSC-Assay),patient #2,0.98
same,prediction (DiSC-Assay),patient #2,sensitive (values above 0.5 predicted sensitivity against the drug tested)
same,Ci (DiSC-Assay),patient #3,0.97
same,prediction (DiSC-Assay),patient #3,sensitive (values above 0.5 predicted sensitivity against the drug tested)
same,Ci (DiSC-Assay),patient #4,0.95
same,prediction (DiSC-Assay),patient #4,sensitive (values above 0.5 predicted sensitivity against the drug tested)
same,Ci (DiSC-Assay),patient #5,0.90
same,prediction (DiSC-Assay),patient #5,sensitive (values above 0.5 predicted sensitivity against the drug tested)
same,Ci (DiSC-Assay),patient #6,0.89
same,prediction (DiSC-Assay),patient #6,sensitive (values above 0.5 predicted sensitivity against the drug tested)
same,Ci (DiSC-Assay),patient #7,0.85
same,prediction (DiSC-Assay),patient #7,sensitive (values above 0.5 predicted sensitivity against the drug tested)
same,Ci (DiSC-Assay),patient #8,0.81
same,prediction (DiSC-Assay),patient #8,sensitive (values above 0.5 predicted sensitivity against the drug tested)
same,Ci (DiSC-Assay),patient #9,0.75
same,prediction (DiSC-Assay),patient #9,sensitive (values above 0.5 predicted sensitivity against the drug tested)
same,Ci (DiSC-Assay),patient #10,0.70
same,prediction (DiSC-Assay),patient #10,sensitive (values above 0.5 predicted sensitivity against the drug tested)
same,Ci (DiSC-Assay),patient #11,0.68
same,prediction (DiSC-Assay),patient #11,sensitive (values above 0.5 predicted sensitivity against the drug tested)
same,Ci (DiSC-Assay),patient #12,0.61
same,prediction (DiSC-Assay),patient #12,sensitive (values above 0.5 predicted sensitivity against the drug tested)
same,Ci (DiSC-Assay),patient #13,0.60
same,prediction (DiSC-Assay),patient #13,sensitive (values above 0.5 predicted sensitivity against the drug tested)
same,Ci (DiSC-Assay),patient #14,0.57
same,prediction (DiSC-Assay),patient #14,sensitive (values above 0.5 predicted sensitivity against the drug tested)
same,Ci (DiSC-Assay),patient #15,0.55
same,prediction (DiSC-Assay),patient #15,sensitive (values above 0.5 predicted sensitivity against the drug tested)
same,Ci (DiSC-Assay),patient #16,0.50
same,prediction (DiSC-Assay),patient #16,resistant (Ci values of 0-0.5 indicated resistance)
same,Ci (DiSC-Assay),patient #17,0.47
same,prediction (DiSC-Assay),patient #17,resistant (Ci values of 0-0.5 indicated resistance)
same,Ci (DiSC-Assay),patient #18,0.46
same,prediction (DiSC-Assay),patient #18,resistant (Ci values of 0-0.5 indicated resistance)
same,Ci (DiSC-Assay),patient #19,0.43
same,prediction (DiSC-Assay),patient #19,resistant (Ci values of 0-0.5 indicated resistance)
same,Ci (DiSC-Assay),patient #20,0.39
same,prediction (DiSC-Assay),patient #20,resistant (Ci values of 0-0.5 indicated resistance)
same,Ci (DiSC-Assay),patient #21,0.34
same,prediction (DiSC-Assay),patient #21,resistant (Ci values of 0-0.5 indicated resistance)
same,Ci (DiSC-Assay),patient #22,0.32
same,prediction (DiSC-Assay),patient #22,resistant (Ci values of 0-0.5 indicated resistance)
